Source: US8119805B2, “Substituted disulfonamide compounds” (Gruenenthal GmbH, priority 2008, dated 2012)
Structures can show the parent of a compound that is named as a salt.

Legend:
[1] = target: T1, human B1R receptor (hB1R) (Homo sapiens, UniProt P46663); assay: Functional investigation on the bradykinin 1 receptor (B1R), FLIPR Ca2+ assay, hB1R cells; format: cell-based; conditions: test substance 10 μM; CHO K1 cells transfected with human B1R gene; Fluo-4 Ca2+ signal; agonist Lys-Des-Arg9-bradykinin at EC80; % of maximum achievable inhibition; read-out: B1R antagonism, human [10 μM] % inhibition
T1 construct: expressed in transfected cells; host or cells: CHO K1 cells
T1 sequence (P46663 1-353): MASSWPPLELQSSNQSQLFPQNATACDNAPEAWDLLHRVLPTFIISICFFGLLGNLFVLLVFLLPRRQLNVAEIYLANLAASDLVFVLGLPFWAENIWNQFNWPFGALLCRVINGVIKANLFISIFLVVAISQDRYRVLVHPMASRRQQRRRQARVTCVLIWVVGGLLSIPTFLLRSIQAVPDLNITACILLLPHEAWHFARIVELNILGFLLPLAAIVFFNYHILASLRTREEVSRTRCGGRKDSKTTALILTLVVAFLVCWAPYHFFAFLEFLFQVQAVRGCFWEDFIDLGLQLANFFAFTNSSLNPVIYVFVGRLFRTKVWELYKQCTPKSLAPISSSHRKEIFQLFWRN
Description: (§1) The agonistic or antagonistic action of substances on the bradykinin 1 receptor (B1R) of the human and rat species can be quantified with ectopically expressing cell lines (CHO K1 cells) and with the aid of a Ca^2+-sensitive dyestuff (Fluo-4) in a fluorescent imaging plate reader (FLIPR). The value in % activation is based on the Ca^2+ signal after addition of Lys-Des-[…]-bradykinin (0.5 nM) or Des-[…]-bradykinin (100 nM). Antagonists lead to a suppression of the Ca^2+inflow after addition of the agonist. % inhibition compared with the maximum achievable inhibition is stated. The agonistic or antagonistic action of substances on the bradykinin 1 receptor (B1R) of the human and rat species can be determined with the following assay. In accordance with this assay, the Ca^2+ inflow through the channel is quantified with the aid of a Ca^2+-sensitive dyestuff (type Fluo-4, Molecular Probes Europe BV, Leiden, Holland) in a fluorescent imaging plate reader (FLIPR, Molecular Devices, Sunnyvale, USA). Chinese hamster ovary cells (CHO K1 cells) transfected stably with the human B1R gene (hB1R cells) or the B1R gene of the rat (rB1R cells) are used. For functional studies, these cells are plated out on black 96-well plates with a clear base (BD Biosciences, Heidelberg, Germany or Greiner, Frickenhausen, Germany) in a density of 20,000-35,000 cells/well. The cells are left overnight at 37° C. and 5% CO2 in culture medium (hB1R cells: Nutrient Mixture Ham's F12, Gibco Invitrogen GmbH, Karlsruhe, Germany or DMEM, Sigma-Aldrich, Taufkirchen, Germany; rB1R cells: D-MEM/F12, Gibco Invitrogen GmbH, Karlsruhe, Germany) with 10 vol. % FBS (foetal bovine serum, Gibco Invitrogen GmbH, Karlsruhe, Germany or PAN Biotech GmbH, Aidenbach, Germany). On the following day, the cells are loaded for 60 min at 37° C. with 2.13 μM Fluo-4 (Molecular Probes Europe BV, Leiden Holland) in HBSS buffer (Hank's buffered saline solution, Gibco Invitrogen GmbH, Karlsruhe, Germany) with 2.5 mM probenecid (Sigma-Aldrich, Taufkirchen, Germany) and 10 mM HEPES (Sigma-Aldrich, Taufkirchen, Germany). The plates are then washed 2× with HBSS buffer, and HBSS buffer which additionally contains 0.1% BSA (bovine serum albumin; Sigma-Aldrich, Taufkirchen, Germany), 5.6 mM glucose and 0.05% gelatine (Merck KGaA, Darmstadt, Germany) is added. After a further incubation of 20 minutes at room temperature, the plates are inserted into the FLIPR for the Ca^2+ measurement. Alternatively, the plates are washed with buffer A (15 mM HEPES, 80 mM NaCl, 5 mM KCl, 1.2 mM CaCl2, 0.7 mM MgSO4, 2 g/l glucose, 2.5 mM probenecid), buffer A is added and the plates are loaded with 2.5 μM Fluo-4 and 0.025% Pluronic F127 (Sigma-Aldrich, Taufkirchen, Germany). Thereafter, the cells are washed 2× with buffer A and incubated for 30 minutes at room temperature with buffer A, which additionally contains 0.05% BSA and 0.05% gelatine, and thereafter inserted into the FLIPR for the Ca^2+ measurement. The Ca^2+-dependent fluorescence is measured here before and after addition of substances (λex=488 nm, λem=540 nm). Quantification is by measurement of the highest fluorescence intensity (FC, fluorescence counts) over time. The FLIPR protocol consists of 2 additions of substance. Test substances (10 μM) are first pipetted on to the cells and the Ca^2+ inflow is compared with the control (hB1R: Lys-Des-[…]-bradykinin>=50 nM; rB1R: Des-[…]-bradykinin 10 μM). This gives the result in % activation based on the Ca^2+ signal after addition of Lys-Des-[…]-bradykinin (>=50 nM) or Des-[…]-bradykinin (10 μM). After incubation for 10-20 minutes, Lys-Des-[…]-bradykinin (hB1R) or Des-[…]-bradykinin (rB1R) at the EC80 concentration is applied and the inflow of Ca^2+ is likewise determined. Antagonists lead to a suppression of the Ca^2+ inflow. The percent inhibition compared to the maximum achievable inhibition is calculated. In order to determine the IC50 value, the substances are added in various concentrations. […]

[2] = target: T2, B1R receptor of the rat (rB1R) (Rattus norvegicus, UniProt P97583); assay: Functional investigation on the bradykinin 1 receptor (B1R), FLIPR Ca2+ assay, rB1R cells; format: cell-based; conditions: test substance 10 μM; CHO K1 cells transfected with rat B1R gene; Fluo-4 Ca2+ signal; agonist Des-Arg9-bradykinin at EC80; % of maximum achievable inhibition; read-out: B1R antagonism, rat [10 μM] % inhibition
T2 construct: expressed in transfected cells; host or cells: CHO K1 cells
T2 sequence (P97583 1-337): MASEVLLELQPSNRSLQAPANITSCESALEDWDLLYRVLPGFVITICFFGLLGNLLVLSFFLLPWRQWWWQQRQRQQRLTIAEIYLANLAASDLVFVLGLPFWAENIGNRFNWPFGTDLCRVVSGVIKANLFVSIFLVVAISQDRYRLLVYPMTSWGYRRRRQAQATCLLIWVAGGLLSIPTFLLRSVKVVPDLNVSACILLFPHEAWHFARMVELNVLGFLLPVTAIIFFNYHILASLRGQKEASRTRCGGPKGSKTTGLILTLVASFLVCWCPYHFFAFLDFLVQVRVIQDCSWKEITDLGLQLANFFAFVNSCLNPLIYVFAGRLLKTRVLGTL
Description: as §1

## Cc1cc(S(=O)(=O)N2CCC(CCS(=O)(=O)N3CCN(c4ccncc4)CC3)C2)c(C)cc1Cl (stereo not shown) [Example 23, 1-(2-(1-(4-Chloro-2,5-dimethylphenylsulfonyl)pyrrolidin-3-yl)ethylsulfonyl)-4-(pyridin-4-yl)piperazine]
[1]
  inhibition at 10 µM: 102%
[2]
  inhibition at 10 µM: 78%

## COc1cc(C)c(S(=O)(=O)N2c3ccccc3CC2CCCS(=O)(=O)N2CCC(O)(c3cccnc3)CC2)c(C)c1 (stereo not shown) [Example 44, 1-(3-(1-(4-Methoxy-2,6-dimethylphenylsulfonyl)indolin-2-yl)propylsulfonyl)-4-(pyridin-3-yl)piperidin-4-ol]
[1]
  inhibition at 10 µM: 82%
[2]
  inhibition at 10 µM: 105%

## Cc1cccc(Cl)c1S(=O)(=O)N1CCC[C@H]1CCCS(=O)(=O)N1CC(N2[C@@H]3CC[C@H]2C[C@H](Oc2ccncc2)C3)C1 [Example 81, (1R,3s,5S)-8-(1-(3-((S)-1-(2-Chloro-6-methylphenylsulfonyl)pyrrolidin-2-yl)propylsulfonyl)azetidin-3-yl)-3-(pyridin-4-yloxy)-8-azabicyclo[3.2.1]octane]
[1]
  inhibition at 10 µM: 96%
[2]
  inhibition at 10 µM: 98%

## CN1CCC(N2CCN(S(=O)(=O)CCC[C@@H]3CCCN3S(=O)(=O)CC(c3ccccc3)c3ccccc3)CC2)CC1 [Example 33, (S)-1-(3-(1-(2,2-Diphenylethylsulfonyl)pyrrolidin-2-yl)propylsulfonyl)-4-(1-methylpiperidin-4-yl)piperazine]
[1]
  inhibition at 10 µM: 98%
[2]
  inhibition at 10 µM: 36%

## O=S(=O)(CCC[C@@H]1CCCN1S(=O)(=O)c1ccc2ccccc2c1)N1CCC(Oc2ccncc2)CC1 [Example 49, (S)-4-(1-(3-(1-(Naphthalen-2-ylsulfonyl)pyrrolidin-2-yl)propylsulfonyl)piperidin-4-yloxy)pyridine]
[1]
  inhibition at 10 µM: 30%
[2]
  inhibition at 10 µM: 36%

## O=S(=O)(CCC[C@@H]1CCCN1S(=O)(=O)c1ccc(Cl)c2ccccc12)N1CCC2(CCN(c3ccncc3)CC2)CC1 [Example 79, 3-(3-((S)-1-(4-Chloronaphthalen-1-ylsulfonyl)pyrrolidin-2-yl)propylsulfonyl)-9-(pyridin-4-yl)-3,9-diazaspiro[5.5]undecane]
[1]
  inhibition at 10 µM: 77%
[2]
  inhibition at 10 µM: 96%

## Cc1cc(C)c(S(=O)(=O)N2CCC(CCCS(=O)(=O)N3CCN(C4CCN(C)CC4)CC3)CC2)c(C)c1 [Example 13, 1-(3-(1-(Mesitylsulfonyl)piperidin-4-yl)propylsulfonyl)-4-(1-methylpiperidin-4-yl)piperazine]
[1]
  inhibition at 10 µM: 53%

## Cc1cc(C)c(S(=O)(=O)N2CCC(CCS(=O)(=O)N3CCN(c4ccncc4)CC3)C2)c(C)c1 (stereo not shown) [Example 20, 1-(2-(1-(Mesitylsulfonyl)pyrrolidin-3-yl)ethylsulfonyl)-4-(pyridin-4-yl)piperazine hydrochloride]
[1]
  inhibition at 10 µM: 103%
[2]
  inhibition at 10 µM: 75%

## O=S(=O)(CCC[C@@H]1CCCN1S(=O)(=O)c1ccccc1C(F)(F)F)N1CCC2(CCN(c3ccncc3)CC2)CC1 [Example 68, 3-(Pyridin-4-yl)-9-(3-((S)-1-(2-(trifluoromethyl)phenylsulfonyl)pyrrolidin-2-yl)propylsulfonyl)-3,9-diazaspiro[5.5]undecane hydrochloride]
[1]
  inhibition at 10 µM: 100%
[2]
  inhibition at 10 µM: 96%

## O=S(=O)(CCC1CCN(S(=O)(=O)c2csc3ccccc23)C1)N1CCC(CCN2CCCC2)CC1 (stereo not shown) [Example 3, 1-(2-(1-(Benzo[b]thiophen-3-ylsulfonyl)pyrrolidin-3-yl)ethylsulfonyl)-4-(2-(pyrrolidin-1-yl)ethyl)piperidine]
[1]
  inhibition at 10 µM: 55%

## COc1cc(C)c(S(=O)(=O)N2CCCC2CCCCS(=O)(=O)N2CCN(C3CCN(C)CC3)CC2)c(C)c1C (stereo not shown) [Example 7, 1-(4-(1-(4-Methoxy-2,3,6-trimethylphenylsulfonyl)pyrrolidin-2-yl)butylsulfonyl)-4-(1-methylpiperidin-4-yl)piperazine]
[1]
  inhibition at 10 µM: 38%
[2]
  inhibition at 10 µM: 58%

## COc1cc(C)c(S(=O)(=O)N2c3ccccc3CC2CCCS(=O)(=O)N2CCC3(CCN(c4ccncc4)CC3)CC2)c(C)c1 (stereo not shown) [Example 45, 1-(4-Methoxy-2,6-dimethylphenylsulfonyl)-2-(3-(9-(pyridin-4-yl)-3,9-diazaspiro[5.5]undecan-3-ylsulfonyl)propyl)indoline]
[1]
  inhibition at 10 µM: 98%
[2]
  inhibition at 10 µM: 102%

## O=S(=O)(CCC[C@@H]1CCCN1S(=O)(=O)c1ccc2ccccc2c1)N1[C@@H]2CC[C@H]1C[C@H](Oc1ccncc1)C2 [Example 57, (1R,3R,5S)-8-(3-((S)-1-(Naphthalen-2-ylsulfonyl)pyrrolidin-2-yl)propylsulfonyl)-3-(pyridin-4-yloxy)-8-azabicyclo[3.2.1]octane]
[1]
  inhibition at 10 µM: 25%
[2]
  inhibition at 10 µM: 54%

## Cc1cc(C)c(S(=O)(=O)N2CCC(CCCS(=O)(=O)N3CCC(CCN4CCCC4)CC3)CC2)c(C)c1 [Example 12, 1-(Mesitylsulfonyl)-4-(3-(4-(2-(pyrrolidin-1-yl)ethyl)piperidin-1-ylsulfonyl)propyl)piperidine]
[1]
  inhibition at 10 µM: 52%

## COc1cc(C)c(S(=O)(=O)N2CCC[C@H]2CCCS(=O)(=O)N2CCN(c3nccs3)CC2)c(C)c1C [Example 40, (S)-2-(4-(3-(1-(4-Methoxy-2,3,6-trimethylphenylsulfonyl)pyrrolidin-2-yl)propylsulfonyl)piperazin-1-yl)thiazole]
[1]
  inhibition at 10 µM: 50%

## Cc1cc(C)c(S(=O)(=O)N2CCC(CCS(=O)(=O)N3CCC(CCN4CCCC4)CC3)C2)c(C)c1 (stereo not shown) [Example 1, 1-(2-(1-(Mesitylsulfonyl)pyrrolidin-3-yl)ethylsulfonyl)-4-(2-(pyrrolidin-1-yl)ethyl)piperidine]
[1]
  inhibition at 10 µM: 83%

## O=S(=O)(CCC1CCN(S(=O)(=O)c2c(Cl)cc(C(F)(F)F)cc2Cl)CC1)N1CCC(CCN2CCCC2)CC1 [Example 14, 1-(2,6-Dichloro-4-(trifluoromethyl)phenylsulfonyl)-4-(2-(4-(2-(pyrrolidin-1-yl)ethyl)piperidin-1-ylsulfonyl)ethyl)piperidine]
[1]
  inhibition at 10 µM: 58%
